For 27 molecules, IC50 results are on record in patent US20210261539A1, “COMPOUND HAVING BET INHIBITORY ACTIVITY AND PREPARATION METHOD AND USE THEREFOR” (Shanghai Haihe Pharmaceutical Co., Ltd., priority 2018, published 2021).

In this assay the target is T1, BRD4 BD1 (Homo sapiens, UniProt O60885).
T1 construct: Protein BRD4 BD1 used in the assay was purchased from Active Motif (cat. 31380); purchased Active Motif 31380
Description: HTRF in vitro enzyme activity assay, inhibition of BRD4 BD1 binding to acetylated H4 peptide. The following applies: IC50 values of the compounds against BRD4 BD1 binding; class symbols A/B/C. The procedure: Effect Examples: In Vitro Enzyme Activity Assay
Half inhibitory activity (IC50) of the compounds of the invention against the bromodomain protein BRD4 BD1 was determined in the present Examples.
The compounds of the invention were tested for inhibitory activity against BRD4 BD1 with Homogeneous Time-Resolved Fluorescence (HTRF).
2. Reagents, Consumable Materials and Instruments:
Protein BRD4 BD1 used in the assay was purchased from Active Motif (cat. 31380); streptavidin XL-665 (#610SAXLA) and EPIgeneous Binding Domain Kit A (#62BDAPEG) were both purchased from Cisbio Bioassays; [Lys(5,8,12,16)Ac] H4(1-21)-biotin (#64989), [Lys(5,8,12,16)Ac]H4(1-25) were available from Anaspec; OTX015 and ABBV-075 were purchased from Selleckchem Co. The 384-well ProxiPlate (#6008280) was purchased from Perkinelmer Co. The Laboratory microplate reader (Envision 2104) was available from PerkinElmer Co. The water used in the assay was Millipore-Q pure water.
3. Formulation of the Compound
10 mM DMSO stock solution of the test compound was diluted to 1 mM in DMSO, and then diluted 10-fold in Binding Domain dilution buffer (purchased from Cisbio Bioassays) for use (DMSO concentration in the final system was 0.1%), including 5 concentrations in 1:5 gradient.
4. Assay Protocol: 1 Batch, 2 Repeats
1) 5 μL of test compound was transferred to 45 μL Binding Domain dilution buffer.
2) 2 μL of 1× compound (4 μL Binding Domain dilution buffer: positive control; 6 μL enzyme buffer (purchased from Cisbio Bioassays): negative control) was transferred to a reaction plate.
3) 4 μL of 5×BRD 4(1) was added to the reaction plate (30 nM in the final system).
4) 4 μL of 5×[Lys(5,8,12,16)Ac] H4(1-21)-biotin was added to the reaction plate, and the plate was covered with a film and incubated at 37° C. for 30 min.
5) A detection mixture of SA-XL665 (2×) and anti-H3K9me0-Eu(K) (2×) was prepared in detection buffer (purchased from Cisbio Bioassays).
6) 10 μL of detection mixture (2×) was added to each well, incubated at RT for 3 h. The mp value was read by microplate reader Envision with the following parameters: […]

Turning to `CNC(=O)c1cccc2c1C(=O)N(c1ccc3c(n1)N(C)C(C)C(=O)N3C)C2c1ccccc1` (single isomer, unassigned) [Example A88-P4, N-methyl-3-oxo-1-phenyl-2-(1,3,4-trimethyl-2-oxo-1,2,3,4-tetrahydropyrido[2,3-b]pyrazin-6-yl)isoindoline-4-carboxamide], the IC50 is no more than 10 nM. Take `CC1C(=O)N(C)c2ccc(N3C(=O)c4ccccc4C3c3ccc(Cl)cc3)nc2N1Cc1ccccc1` (racemic) [Example A35, 4-benzyl-6-(1-(4-chlorophenyl)-3-oxoisoindolin-2-yl)-1,3-dimethyl-3,4-dihydropyrido [2,3-b]pyrazin-2(1H)-one]: the IC50 lay in the range of 10 to 100 nM.

In turn, `CC1C(=O)N(C)c2cnc(N3C(=O)c4ccccc4C3c3ccc(F)nc3)nc2N1C1CC1` (single isomer, unassigned) [Example A101-P3, 8-cyclopropyl-2-(1-(6-fluoropyridin-3-yl)-3-oxoisoindol-2-yl)-5,7-dimethyl-7,8-dihydropteridin-6(5H)-one] showed an IC50 of no more than 10 nM. With `C[C@H]1Oc2nc(N3C(=O)c4ccccc4C3c3cccnc3)ccc2N(C)C1=O` (stereo partly drawn) [Example A33-P1, (R)-1,3-dimethyl-6-(1-oxo-3-(pyridin-3-yl)isoindolin-2-yl)-1H-pyrido[2,3-B][1,3]oxazin-2(3H)-one] the figure was no more than 10 nM; with `C[C@@H]1C(=O)N(C)c2cnc(N3C(=O)c4c(cccc4S(C)(=O)=O)C3c3cccnc3)nc2N1C` (stereo partly drawn) [Example A103-P1, (7R)-5,7,8-trimethyl-2-(4-(methylsulfonyl)-3-oxo-1-(pyridin-3-yl)isoindolin-2-yl)-7,8-dihydropteridin-6(5H)-one], no more than 10 nM. Next, `Cc1ccc(C2c3ccccc3C(=O)N2c2ccc3c(n2)O[C@H](C)C(=O)N3C)cn1` (single isomer, unassigned) [Example A112-P1]: no more than 10 nM. As to `CC1C(=O)N(C)c2cnc(N3C(=O)c4ccccc4C3c3ccc(F)nc3)nc2N1C1CC1` (stereo not drawn) [A99-P3/P4, 8-cyclopropyl-2-(1-(6-fluoropyridin-3-yl)-3-oxoisoindol-2-yl)-5,7-dimethyl-7,8-dihydropteridin-6(5H)-one], the IC50 is no more than 10 nM. Next, `CC1C(=O)N(C)c2cc(F)c(N3C(=O)c4ccccc4C3c3cccnc3)nc2N1C1CC1` (stereo not drawn) [Example A44, 4-cyclopropyl-7-fluoro-1,3-dimethyl-6-(1-oxo-3-(pyridin-3-yl)isoindolin-2-yl)-3,4-dihydropyrido [2,3-b]pyrazin-2(1H)-one]: no more than 10 nM; `CC1C(=O)N(C)c2ccc(N3C(=O)CCC3c3ccccn3)nc2N1C1CC1` (single isomer, unassigned) [Example A6-P1, 4-cyclopropyl-1,3-dimethyl-6-(2-oxo-5-(pyridin-2-yl)pyrrolidin-1-yl)-3,4-dihydropyrido[2,3-b]pyrazin-2(1H)-one]: no more than 10 nM. Next, `CC1C(=O)N(C)c2ccc(N3C(=O)c4ccccc4C3c3cccnc3)nc2N1C1CC1` (stereo not drawn) [Example A36-P3, 4-cyclopropyl-1,3-dimethyl-6-(1-oxo-3-(pyridin-3-yl)isoindolin-2-yl)-3,4-dihydropyrido [3,2-b]pyrazin-2-(1H)-one]: no more than 10 nM; `C[C@H]1Oc2nc(N3C(=O)c4c(cccc4S(C)(=O)=O)C3c3cccnc3)ccc2N(C)C1=O` (single isomer, unassigned) [Example A128-P1]: 10 to 100 nM; `CC1C(=O)N(C)c2ccc(N3C(=O)c4ccccc4C3c3ccccn3)nc2N1C1CC1` (single isomer, unassigned) [Example A69-P3, 4-cyclopropyl-1,3-dimethyl-6-(1-oxo-3-(pyridin-2-yl)isoindolin-2-yl)-3,4-dihydropyrido[2,3-b]pyrazin-2(1H)-one]: no more than 10 nM. Next, `CC1C(=O)N(C)c2ccc(-n3c(=O)c4ccccc4n3-c3ccc(Cl)cc3)nc2N1C1COC1` (stereo not drawn) [Example A26-P2, 6-(1-(4-chlorophenyl)-3-oxo-1,3-dihydro-2H-indazol-2-yl)-1,3-dimethyl-4-(oxetan-3-yl)-3,4-dihydropyrido [2,3-b]pyrazin-2(1H)-one]: no more than 10 nM; `CC1Oc2cc(N3C(=O)c4ccccc4C3c3cccnc3)cc(F)c2N(C)C1=O` (single isomer, unassigned) [Example A107-P3, 1-methyl-3-methyl-6-(1-oxo-3-(pyridin-3-yl)isoindolin-2-yl)-8-fluoro-1H-benzo[2,3-B][1,4]oxazin-2(3H)-one]: 10 to 100 nM.

As to `CC1C(=O)N(CC(F)F)c2ccc(N3C(=O)c4ccccc4C3c3cccnc3)nc2N1C1CC1` (stereo not drawn) [Example A53-P4, 4-cyclopropyl-1-(2,2-difluoroethyl)-3-methyl-6-(1-oxo-3-(pyridin-3-yl)isoindolin-2-yl)-3,4-dihydropyrido [2,3-b]pyrazin-2(1H)-one], the IC50 is no more than 10 nM. With `CC1C(=O)N(C)c2ccc(N3C(=O)c4ccccc4C3c3ccccc3)nc2N1CC(F)(F)F` (stereo not drawn) [Example A56-P1, 1,3-dimethyl-6-(1-oxo-3-phenylisoindolin-2-yl)-4-(2,2,2-trifluoroethyl)-3,4-dihydropyrido [2,3-b]pyrazin-2(1H)-one] the figure was no more than 10 nM; with `CCN1C(=O)C(C)N(C2CCCC2)c2nc(N3C(=O)c4ccccc4C3c3ccc(F)cc3)ccc21` (racemic) [Example A24, 4-cyclopentyl-1-ethyl-6-(1-(4-fluorophenyl)-3-oxoisoindolin-2-yl)-3-methyl-3,4-dihydropyrido[2,3-b]pyrazin-2(1H)-one], 10 to 100 nM.

`CC1C(=O)N(C)c2ccc(N3C(=O)c4cccc(F)c4C3c3cccnc3)nc2N1C1CC1` (single isomer, unassigned) [Example A75-P3, 4-cyclopropyl-6-(7-fluoro-3-oxo-1-(pyridin-3-yl)isoindolin-2-yl)-1,3-dimethyl-3,4-dihydropyrido[2,3-b]pyrazin-2(1H)-one]: the IC50 is no more than 10 nM. With `C[C@@H]1C(=O)N(C)c2ccc(N3C(=O)c4ccccc4C3c3ccccn3)nc2N1C` (stereo partly drawn) [Example A42-P2, (3R)-1,3,4-trimethyl-6-(1-oxo-3-(pyridin-2-yl)isoindolin-2-yl)-3,4-dihydropyrido [2,3-b]pyrazin-2-(1H)-one] the figure was no more than 10 nM.

Turning to `C[C@@H]1C(=O)N(C)c2cnc(N3C(=O)c4c(cccc4C(C)(C)O)C3c3ccc(F)cc3)nc2N1C` (single isomer, unassigned) [Example A96-P1], the IC50 is no more than 10 nM. As for `CC1C(=O)N(C)c2ccc(N3C(=O)c4sccc4C3c3cccnc3)nc2N1C1CC1` (single isomer, unassigned) [Example A72-P4, 5-(4-cyclopropyl-1,3-dimethyl-2-oxo-1,2,3,4-tetrahydropyrido[2,3-b]pyrazin-6-yl)-4-(pyridin-3-yl)-4,5-dihydro-6H-thieno[2,3-c]pyrrol-6-one], the IC50 was no more than 10 nM. In turn, `CC1C(=O)N(C)c2ccc(N3C(=O)c4ccccc4C3c3ccc(F)cc3)nc2N1C1CCCC1` (racemic) [Example A38, 4-cyclopentyl-6-(1-(4-fluorophenyl)-3-oxoisoindolin-2-yl)-1,3-dimethyl-3,4-dihydropyrido [2,3-b]pyrazin-2(1H)-one] returned an IC50 of 10 to 100 nM. On to `CC1C(=O)N(C)c2ccc(N3C(=O)CCC3c3ccc(Cl)cc3)nc2N1C1CC1` (stereo not drawn) [Example A3-P3, 4-cyclopropyl-6-(2-(4-chlorophenyl)-5-oxopyrrolidin-1-yl)-1,3-dimethyl-3,4-dihydropyrido[2,3-b]pyrazin-2(1H)-one], for which the IC50 was no more than 10 nM. Next, `Cc1ccc(C2c3ccccc3C(=O)N2c2nc3c(cc2F)N(C)C(=O)[C@@H](C)O3)cn1` (stereo partly drawn) [Example A114-P3, (R)-7-fluoro-1,3-dimethyl-6-(1-(6-methylpyridin-3-yl)-3-oxoisoindolin-2-yl)-1H-pyrido[2,3-b][1,4]oxazin-2(3H)-one]: 100 to 1000 nM; `CC(C)N1c2nc(N3C(=O)c4ccccc4C3c3cccnc3)ccc2N(C)C(=O)C1C` (stereo not drawn) [Example A57-P3]: no more than 10 nM; `Cc1ccc(C2CCC(=O)N2c2ccc3c(n2)N(C2CC2)C(C)C(=O)N3C)cc1` (single isomer, unassigned) [Example A8-P3, 4-cyclopropyl-6-(2-(4-methylphenyl)-5-oxopyrrolidin-1-yl)-1,3-dimethyl-3,4-dihydropyrido[2,3-b]pyrazin-2(1H)-one]: no more than 10 nM. With `CC1C(=O)N(C)c2ccc(N3C(=O)c4c(cccc4S(C)(=O)=O)C3c3cccnc3)nc2N1C1CC1` (single isomer, unassigned) [Example A64-P3, 4-cyclopropyl-1,3-dimethyl-6-(4-(methanesulfonyl)-3-oxo-1-(pyridin-3-yl)isoindolin-2-yl)-3,4-dihydropyrido[2,3-b]pyrazin-2(1H)-one] the figure was no more than 10 nM.
